From patent publication US20020165216A1, “Cobalt-porphyrin complexes and use thereof as an anti-obesity agent” (MitoKor, priority 2000, published 2002)
Read-outs that look alike come from different tables or passages of the source.

Tests used:
Weight loss assay = format: in vivo, Male Sprague Dawley rats; conditions: 12 mM in vehicle, 400 μl per 100 grams body weight, subcutaneous, nuchal area, 8 days
Protocol: Male Sprague Dawley rats (approximately 200 g) were purchased from Charles River Canada, Inc. and were shipped to the Animal Care Facility at the University of Vermont. Upon arrival they were housed in separate cages with corncob bedding and ad lib access to tap water and purina rat chow. The animal facility is maintained at a temperature of 71° F. +/− 1° F. with a 12-hour light/dark cycle, lights on at 6:00 am and off at 6:00 pm. Two days later (Day-3) all rats were shaved in the nuchal area and baseline color photographs of the nuchal area were taken (light halothane anesthesia was utilized to facilitate the shaving). Three days later (Day 0) experimental compounds were made up at 12 mM concentrations in vehicle (i.e., saline:PEG400:EtOH (5:4:1), pH 7.4). Animals were injected subcutaneously in the nuchal area with the various stock solutions at a dose of 400 μl per 100 grams body weight. Typical injection volumes, therefore, range from 1 to 1.5 ml per animal. Animals were injected using a modified Z-track technique to try and minimize outflow of injected compounds due to the high volume utilized. Each animal was weighed prior to injection and all injections were accomplished in an approximately two-hour period. No anesthesia was utilized for injections.
Animals subsequently underwent daily weighing with a Mettler 6 second integrating balance and had ad lib access to tap water and purina rat chow. At various intervals after injections, the nuchal area of rats was again photographed. […] The scale used was 0 for no lesions, 5 for the worst lesions with breakdown of the skin and open flow of exudates. Grades in-between were estimated by the operator based on the size and severity of the lesion. […] After 8 days, final photographs were taken and all animals were euthanized, marking the end of the experiment.
Means of body weights for each group were calculated and plotted over time (FIG. 9A), as were numerical means of the lesion severity index (FIG. 9B). In FIGS. 9A and 9B, C=noninjected control, V=vehicle injected control, A=Co-MP, E=Cpd. No. (1-6) and F=Cpd. No. (4-4). […] Cpd.

[1] = high doses; cited from earlier work
[2] = subcutaneous administration, Zucker rats fa/fa; cited from earlier work
[3] = cited from earlier work
[4] = Oxygen consumption catalyzed by Co-P in the presence of ascorbate/TMPD (Clark oxygen electrode); conditions: 2 mM ascorbate, 40 μM TMPD; for Relative Rate (oxygen consumption), effect of ligand, R5 and A moiety: Table 3; for O2 consumption / redox cycling (in words): cell free ascorbate/TMPD system; for Relative Rate (oxygen consumption), effect of ligand, R5, A and n moiety: Table 4
Protocol: (Co-MP). Such activity can be readily determined by, for example, the assay disclosed in Example 16. In that assay, redox activity is measured by oxygen consumption catalyzed by a Co-P test compound in the presence of ascorbate and TMPD.
Ten mM stock solutions of a Co-P of this invention (i.e., test compound) were prepared using ethanol as solvent. KCl media consists of 125 mM KCl, 2 mM K2HPO4, 20 mM HEPES, pH 7.0. Oxygen consumption measurements were carried out using a Clark type oxygen electrode (Rank Brothers Ltd., Cambridge, UK) and assay solutions were magnetically stirred during the course of the experiments. To 500 μl of assay solution (KCl media supplemented with 2 mM sodium ascorbate and 40 μM […] (TMPD)) is added 2 μl of a stock solution of test compound (40 μM final concentration) and the oxygen consumption rate is followed for 2-4 min. Subsequently, a 5 μl aliquot of a freshly made catalase solution (100 mg/ml solution in KCl media) is added to determine if H2O2 is generated via redox cycling of the test compound.
Initial rates are calculated from oxygen consumption slopes and rate of a solvent control is subtracted. […] An aliquot of a 10 mM stock solution of Co-MP (final concentration of 40 μM) was added to assay buffer containing 2 mM of ascorbate and 40 μM of TMPD. […] Addition of catalase results in conversion of H2O2 present in the assay solution to O2 and H2O.
Stock solutions of the test compound were at 10 mM. Aliquots of the stock solutions were added to 500 μl of assay buffer containing 2 mM of ascorbate and 40 μM of TMPD.
Representative Co-P compounds of this invention were prepared by the procedures disclosed above, and assayed by the procedure of Example 16 to measure oxygen consumption catalyzed by the test compound in the presence of ascorbate/TMPD. […] The above procedure was then repeated for other representative Co-P compounds of this invention, but utilizing different ligands and/or R groups.

reduced cytochrome c = reduced cytochrome c (Homo sapiens, UniProt P99999); assay: Oxidation of reduced cytochrome c by Co-PP; format: biochemical; conditions: reduced cytochrome c 5.3, 10.5, 26 μM; 0-100 μM CoPP; absorbance at 550 nm
Protocol: Reduced cytochrome c was prepared by the addition of an excess of ascorbic acid to a solution of cytochrome c and allowing the solution to stand for 5 to 10 minutes. The reduced protein was purified over a Sephadex G50 column and checked spectrophotometrically by measuring absorbance at 550 nm, followed by the addition of a few grains of dithionite and measuring absorbance again at 550 nm. […] Initial rates of oxidation of reduced cytochrome c at three concentrations (5.3 μM, 10.5 μM and 26 μM) were followed in the presence of 0, 5,10, 20 and 100 μM CoPP. Assays were conducted in 1 ml of assay buffer (20 mM potassium phosphate, pH 7.0, 0.2 mg/ml dodecyl-β-maltoside) and initiated by the addition of desired concentration of reduced cytochrome c and monitoring the change in absorbance at 550 nm for 90 seconds. The fully oxidized absorbance value was determined by the addition of a few grains of ferricyanide to the cuvette. […] In a biological system, Co-PP can transfer electrons from an electron rich donor/reductant to molecular oxygen, O2, to generate reactive oxygen species, the production of which can be toxic to cells and give rise to undesirable side effects (e.g. oxidative stress).

[5] = system: SH-SY5Y neuroblastoma cells; assay: Cellular assay for generation of reactive oxygen species (ROS); format: cell-based; conditions: for generation of reactive oxygen species (DCFC-DA fluorescence): 30 minutes with test compound
Protocol: All cell culture reagents were incubated in a water bath at 37° C. for approximately 30 minutes. Existing media from a near confluent tissue culture flask containing SH-SY5Y neuroblastoma cells was aspirated using a flame sterilized glass transfer pipette attached to a trapped vacuum apparatus. Calcium free PBS buffer was pipetted into the tissue culture flask (2 ml for a 75 cm2 flask, 3 ml for a 175 cm^2 flask). The flask was tipped slightly to ensure that the buffer covers the cell culture and then the buffer was removed by aspiration. Trypsin media was pipetted into the tissue culture flask (2 ml for a 75 cm^2 flask, 3 ml for a 175 cm^2 flask) and evenly spread to ensure that the trypsin covered the cell culture. The cell culture was incubated with trypsin media for 4-6 minutes at room temperature. After cells were released from the flask, the flask was tilted to one corner. Using the existing media within the flask, the aggregated cells were collected towards one corner and repeatedly pipetted to obtain a single cell suspension. The cell suspension was transferred with a pipette into a 15 ml conical shaped centrifuge tube then cell culture media was added to the suspension up to a total volume of 14 ml. Ten μl aliquots were withdrawn and the cells were counted using a hemocytometer. The suspension was centrifuged at 200×g for 10 minutes, the supernatant was aspirated off, and the cell pellet was resuspended at 3.75×10^5 cells/ml in cell culture medium. Two hundred μl of cell suspension were aliquoted per well in the 96 well dish to obtain a final cell number of 75,000 cells per well. The plates were incubated overnight at 37° C. and 5% CO2 in a humidified cell incubator.
The medium was carefully removed from the wells by aspiration with an 18 g needle. The wells were gently rinsed once with 200 μl of warm Hanks balanced saline solution (HBSS, Gibco-BRL). […]
Stock solutions of test compound, such as Co-PP, Co-MP, or a Co-P of this invention, and of an H2O2 scavenger such as ebselen, were typically prepared in dimethylformamide or dimethylsulfoxide and diluted further into working concentrations using HBSS. […] The plate was read immediately in Cytofluor model 2350 system (Millipore; excitation wavelength: 485 nm; emission wavelength: 530 nm) for a 0 min timepoint reading. The cells were incubated for 30 minutes at room temperature with test compound following which a 30 min reading was taken. The change in RMF over the 30 minutes period was calculated for each well. […] The plate was then read in the Cytofluor (excitation wavelength: 360 nm; emission wavelength: 460 nm) and the Hoechst fluorescence values were used to normalize the DCFC-DA RMF data.

[6] = 40 μM test compound, normalized to chloride salt of Co-MP = 1

Chain of reduced cytochrome c (P99999 whole entry): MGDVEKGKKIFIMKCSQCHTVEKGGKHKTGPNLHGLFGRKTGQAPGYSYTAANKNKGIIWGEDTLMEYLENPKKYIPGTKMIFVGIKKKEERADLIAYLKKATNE

Q: For `CCC1=C(C)c2cc3[n-]c(cc4nc(cc5[n-]c(cc1n2)c(C)c5CCC(=O)NC(C)C)C(CCC(=O)NC(C)C)=C4C)c(C)c3CC.NCC(=O)O.NCC(=O)[O-].[Co+3]` [(4-4), Cobalt (III) mesoporphvrin IX bisglycinate, di—(N-isopropyl)amide], which body weight response (Weight loss assay) is on record?
A: favorable body weight responses

Q: Which results are given for `C=CC1=C(C)c2cc3[n-]c(cc4nc(cc5[n-]c(cc1n2)c(C)c5CCC(=O)[O-])C(CCC(=O)[O-])=C4C)c(C)c3C=C.[Co+2].[H+].[H+]` [Co-PP, Cobalt protoporphyrin]?
A: heme oxygenase induction [1]: induction of heme oxygenase; oxidative stress [1]: oxidative stress has been associated with administration of high doses; body weight [2]: long-sustained reduction in body weight; body weight ([3]; single subcutaneous injection): sustained decrease in body weight; carcass composition ([3]; single subcutaneous injection): decreases in carcass fat content without changes in protein content; food intake ([3]; single subcutaneous injection): prompt dose-dependent decrease in food intake; food intake and body weight effect ([3]; smaller doses, intracerebroventricular administration): elicit the same effect; Relative Rate (oxygen consumption), effect of ligand, R5 and A moiety [4, 6]: 2.2; oxidation of reduced cytochrome c (reduced cytochrome c): serves as an electron acceptor from reduced cytochrome c; generation of reactive oxygen species (DCFC-DA fluorescence) [5]: reactive oxygen species were induced

Q: Which “scavenging of reactive oxygen species induced by Co-PP and Co-MP” value [5] does the source give for `O=c1c2ccccc2[se]n1-c1ccccc1` [ebelsen, ebselen] here?
A: scavanges the reactive oxygen species

Q: For `c1c[nH]cn1` [imidazole], which “O2 consumption / redox cycling (in words)” value [4] is on record?
A: blocks generation of reactive oxygen species

Q: Which “Relative Rate (oxygen consumption), effect of ligand, R5, A and n moiety” value (“Relative Rate … A and n moiety” below) [4, 6] does the source give for Cobalt (III) Mesioirogyrin IX [(11-1)] here?
A: 0.0005

Q: For “Cobalt (III) Mesoporphyrin IX Diacetate [(7-1)]”, which “Relative Rate … A and n moiety” value [4, 6] is on record?
A: 0.07

Q: Which “Relative Rate … A and n moiety” value [4, 6] does the source give for “Cobalt (III) Mesoporphyrin IX Dibenzyl Ester [(8-1)]” here?
A: 0.045

Q: For “Cobalt (III) Mesoporphyrin IX Dimethyl Ester [(5-1)]”, which “Relative Rate (oxygen consumption), effect of ligand and R5 moiety” value ([4]; Table 2, 40 μM test compound, normalized to chloride salt of Co-MP = 1) is on record?
A: 0.05-0.07

Q: Which “Relative Rate … A and n moiety” value [4, 6] does the source give for “Cobalt (III) Mesoporphyrin IX Diol [(6-1)]” here?
A: 0.56

Q: Which “Relative Rate … A and n moiety” value [4, 6] does the source give for “Cobalt (III) Mesoporphyrin IX Dithiobenzyl Ether [(10-1)]” here?
A: 0.021

Q: With “Cobalt (III) Mesoporphyrin IX bisglycinate monosodium salt dibutyl ester [(1-2)]” as the compound, how does the “Relative Rate (oxygen consumption), effect of ligand, R5 and A moiety” value (shortened to “Relative Rate … R5 and A moiety”) [4, 6] read?
A: (not detected)

Q: What does the source list for “Cobalt (III) Mesoporphyrin IX bisglycinate monosodium salt diisopropyl ester [(1-6)]”?
A: body weight response (Weight loss assay): favorable body weight responses; Relative Rate (oxygen consumption), effect of ligand, R5 and A moiety [4, 6]: (not detected)

Q: With “Cobalt (III) Mesoporphyrin IX bisglycinate monosodium salt, diethyl ester [(1-5)]” as the compound, how does the “Relative Rate … R5 and A moiety” value [4, 6] read?
A: 0.08 ± 0.01

Q: With “Cobalt (III) Mesoporphyrin IX bisglycinate monosodium salt, diisoamyl ester [(1-4)]” as the compound, how does the “Relative Rate … R5 and A moiety” value [4, 6] read?
A: (not detected)

Q: Which “Relative Rate … R5 and A moiety” value [4, 6] does the source give for “Cobalt (III) Mesoporphyrin IX bisglycinate monosodium salt, diisobutyl ester [(1-3)]” here?
A: (not detected)

Q: With “Cobalt (III) Mesoporphyrin IX bisglycinate monosodium salt, dimethyl ester [(1-1)]” as the compound, how does the “Relative Rate … R5 and A moiety” value [4, 6] read?
A: 0.21 ± 0.04

Q: For “Cobalt (III) mesoporphyrin IX bisimidazole, di(4-methoxybenzyl) amide [(4-2)]”, which “Relative Rate … R5 and A moiety” value [4, 6] is on record?
A: (not detected)

Q: And the “O2 consumption / redox cycling (in words)” value [4]?
A: does not result in any O2 consumption

Q: What about the “generation of reactive oxygen species (DCFC-DA fluorescence)” value [5] of the same compound?
A: does not trigger generation of reactive oxygen species
